Measured values published in paper PMC6234764, “First Insights Into Within Host Translocation of the Bacillus cereus Toxin Cereulide Using a Porcine Model” (Frontiers in Microbiology, 2018).

Legend:
[1] = Excretion of cereulide in feces and urine, SIDA-MS; type: in vivo, pig
Experimental: (§1) A total of four experiments, each including four treated animals and one control pig, was performed to investigate the action of cereulide on piglets after oral intake of cereulide. Pigs were either challenged orally with a single dose (acute trials) or with daily over a period of 7 days (chronic trial) (see Table 1). One hour before cereulide toxin administration blood samples were taken by puncturing the anterior Vena cava and piglets were weighed for calculation of the cereulide concentration (t = 0 h). In the intoxication experiment with 150 μg kg^-1 blood samples were taken 68 h before the experiment to reduce the distress for the animals at the start day of the experiments. Blood-chemical, immunological, and histological analyses of selected organs as well as quantification of cereulide in organs, tissues, urine and feces were carried out as detailed below.
(§2) On body weight calculated amounts of cereulide, dissolved in ethanol, were mixed with milk (UHT milk; 3.5% fat), and fed to four piglets. Control piglets were fed with milk supplemented with similar ethanol concentrations as the experimental piglets. The experiment started after the uptake of the whole milk cereulide mixture. The milk was checked for bacterial contamination prior to the experiment.
(§3) After oral administration of cereulide, piglets were monitored for unusual behavior and examined physically with special respect on rectal body temperature as well as pulse and respiration rate, every 2–3 h. Blood samples were taken from the Vena cava cranialis. Urine and feces were collected during the whole experiment and stored at -80°C. After the experiment pigs were anaesthetized by intramuscular injection of a bolus of ketamine (10 mg kg^-1) and azaperone (1.3 mg kg^-1). When sedation was deep enough cerebrospinal fluid (liquor) was taken by lumbar puncture. Finally, pigs were euthanized by intracardial injection of T61®. Animals were then necropsied and parts of the following organs, tissues or body fluids were taken for SIDA-MS analysis: liver, lung, heart, kidney, brain, spleen, small and large intestine, lymph nodes, gastric as well as intestinal contents, skeletal muscle, and abdominal and subcutaneous fat. Samples of liver, lung, heart, kidney, brain, spleen, small, and large intestine were collected for histological analysis.
Collected blood samples, urine, feces, tissue and organs were freeze dried and stored at -80°C until analysis. Before extraction, liquid nitrogen was added to frozen samples and they were crushed to a powder using a mortar. Ten microgram ^13C6-cereulide (for organs and feces) or 5 μg ^13C6-cereulide (for urine and blood) was added and samples were incubated on a rocking table for 2 h. Samples were solved in ethanol (volume depending on weight 10–40 mL), incubated 14 h, and the supernatants were collected by centrifugation (RT, 8500 g, 10 min). For pre-purification the ethanolic extract was 1:5 diluted with water and applied onto the top of a methanol activated C18-SPE cartridge (6 mL; 1 g; Strata C18-E; Phenomenex, Aschaffenburg, Germany). The cartridge was washed with 6 mL water followed by methanol/water (4 mL; 70/30, v/v) and target compounds were eluted with ethanol (2.5 mL). Finally, samples were membrane filtrated (0.2 μm; PTFE membrane; Phenomenex, Aschaffenburg, Germany) and analyzed by means of LC-MS/MS as described previously ([Bauer et al., 2010]). In brief, LC-MS/MS analysis was performed using an Agilent 1200 HPLC-system connected to the API 4000QTrap LC-MS/MS (Applied Biosystems, Darmstadt, Germany) running in the positive electrospray ionization (ESI^+, +5500 V) mode. Zero grade air served as nebulizer gas (45 psi) and turbo gas (425°C) for solvent drying (55 psi), nitrogen was used as curtain (20 psi) and collision gas (8.7 × 10^-7 psi), respectively. Both quadrapoles were set at unit resolution. […]

[2] = tested on: Min6 cells and whole mouse pancreatic islets; conditions: ref Vangoitsenhoven et al., 2014; cited from earlier work
Experimental: Low concentrations of cereulide can cause dysfunction in beta-cell lines ([Vangoitsenhoven et al., 2014]) and have been reported to be detrimental toward isolated porcine pancreatic Langerhans islets ([Virtanen et al., 2008]). Using Min6 cells and whole mouse pancreatic islets as model, it could be shown that low concentrations of cereulide (0.25–0.5 ng/mL) are directly effecting the insulin secretory machinery ([Vangoitsenhoven et al., 2014]). Based on their in vitro findings the authors hypothesized that cereulide may contribute to the rise of prevalence of diabetes observed worldwide, as a ...

[3] = ref Andersson et al., 2007; cited from earlier work
Experimental: Due to the lipophilic character of cereulide (log Kow 5.96) ([Andersson et al., 2007]), it could be assumed that part of the ingested cereulide adheres to digested food and is rapidly excreted via feces. Indeed, as shown in our porcine model, within the first 48 h 10–15% of the cereulide toxin orally administered is shed with feces. Cereulide was already detected in feces a few hours after toxin administration, which allows an early, non-invasive identification of cereulide intoxications. Even in case of the low dose of cereulide used in the chronic trial (10 μg cereulide kg^-1) cereulide coul ...

[4] = plasma of rabbits, direct intravenous injection; ref Cui et al., 2016; cited from earlier work
Large White piglets = assay: Clinical signs after oral administration of cereulide; type: in vivo, pig
Experimental: In each experiment five Large White piglets, weighing 10–15 kg, were used. All piglets were derived from one single farm in Austria. The animals were placed in metabolic cages 3 days before start of the experiment for acclimatization. Water ad libitum and feed (Ferkelkorn, Garant Tiernahrung, Pöchlarn, Austria) were available before and during the whole experiment.
as §1, §2, §3

[5] = ref Ehling-Schulz et al., 2004, Rajkovic et al., 2008, cited from earlier work
Source text: The reported incidence of foodborne outbreaks caused by Bacillus toxins is steadily increasing worldwide throughout the last decade. For instance, in the European Union about 600–700 confirmed cases of foodborne outbreaks linked to B. cereus toxins are annually reported ([Messelhäußer and Ehling-Schulz, 2018]). Due to the rise of reports on severe intoxications, the Bacillus cereus toxin cereulide is of special concern. Cereulide is a small dodecadepsipeptide toxin that evokes emesis a short time after ingestion of contaminated food ([Agata et al., 1995]). Usally the disease is self limiting b ...

[6] = daily oral dose 10 μg kg^-1 over 7 days
[7] = oral doses 10 to 150 μg kg^-1, summary in discussion

CC(C)C[C@H]1OC(=O)[C@H](C(C)C)NC(=O)[C@H](C(C)C)OC(=O)[C@@H](C)NC(=O)[C@@H](CC(C)C)OC(=O)[C@H](C(C)C)NC(=O)[C@H](C(C)C)OC(=O)[C@@H](C)NC(=O)[C@@H](CC(C)C)OC(=O)[C@H](C(C)C)NC(=O)[C@H](C(C)C)OC(=O)[C@@H](C)NC1=O [cereulide]
Cereulide concentration in feces ([1]; daily oral dose 10 μg kg^-1, until end of trial on day 7): 0.02 to 0.29 μg cereulide g^-1 feces | Detectability of cereulide in urine [1, 6]: no cereulide was detectable | Time until cereulide became detectable in fecal samples [1, 6]: 2 to 3 days | Amount of cereulide excreted with the feces ([1]; one pig (13 kg), 30 μg kg^-1 (total intake 390 μg), after 12 h): 20.90 µg | Amount of cereulide excreted with the feces ([1]; one pig (13 kg), 30 μg kg^-1 (total intake 390 μg), after 24 h): 26.80 µg | Amount of cereulide excreted with the feces ([1]; one pig (13 kg), 30 μg kg^-1 (total intake 390 μg), after 48 h): 1.38 µg | Total amount of cereulide excreted with the feces ([1]; one pig (13 kg), 30 μg kg^-1 (total intake 390 μg), in 33.6 g feces over 48 h): 49.08 µg | Cereulide concentration in fecal samples, maximum ([1]; oral challenge, SIDA-MS): up to 5 μg cereulide g^-1 feces | Overall cereulide excretion in feces, % of total amount ([1]; single oral dose 30 μg kg^-1, within first 48 h): up to 13% | Time of first detection in fecal samples post-toxin exposure ([1]; single oral dose 150 μg kg^-1): 3 to 4 h | Cereulide concentration in urine, maximum ([1]; single oral dose 150 μg kg^-1, SIDA-MS): up to 2 ng cereulide mL^-1 urine | Overall cereulide excretion in feces, % of total quantity administered ([1]; single oral dose 150 μg kg^-1, within first 48 h): up to 15% | Time of highest toxin amounts excreted with feces ([1]; single oral dose 150 μg kg^-1, exception one pig that did not defecate over 20 h): 16 to 24 h | Detectability of cereulide in urine ([1]; single oral doses 10 μg kg^-1/30 μg kg^-1, SIDA-MS): not from animals challenged with lower cereulide doses | Cereulide orally administered that is shed with feces ([1]; within the first 48 h, acute trials): 10–15% | Low concentrations directly effecting the insulin secretory machinery [2]: 0.25 to 0.5 ng/mL | log Kow [3]: 5.96 | Elimination half-life [4]: 10.8 ± 9.1 h | Pulse and respiration rates, inner body temperature (Large White piglets; all animals, except during periods of seizures and convulsions): normal pulse and respiration rates as well as inner body temperature | Onset of seizures (Large White piglets; daily oral dose 10 μg kg^-1 for 7 days, all four pigs to varying extents): 2 to 4 h | Onset of transient depressiveness (Large White piglets; daily oral dose 10 μg kg^-1 for 7 days, all piglets): 2 to 6 h | Emesis in the pigs (Large White piglets; oral doses 10 to 150 μg kg^-1): only rarely observed | Onset of observed symptoms in the piglets (Large White piglets; [7]): 1.5 to 3 h | Time after which symptoms ceased (Large White piglets; [7]): 7 to 9 h | Duration of transient depressive behavior (Large White piglets; single oral dose 10 μg kg^-1, all treated piglets): 4.5 to 6 h | Time of vomiting after toxin intake (Large White piglets; single oral dose 10 μg kg^-1, one animal): 11 h | Time after which all symptoms disappeared (Large White piglets; single oral dose 30 μg kg^-1): 7 to 9 h | Onset of shivering (Large White piglets; single oral dose 30 μg kg^-1, 2/4 piglets, seizures an additional hour later): 1 h | Onset of seizures after cereulide intake (Large White piglets; single oral dose 30 μg kg^-1, remaining two piglets): 4 to 6 h | Onset of lethargic behavior (Large White piglets; single oral dose 150 μg kg^-1, all treated piglets): 1.5 to 2 h | Time to gradual recovery (Large White piglets; single oral dose 150 μg kg^-1, three of the four piglets): 6 to 7 h | Stability to enzymatic cleavage ([5]; gastro-intestinal passage): resistance to enzymatic cleavage | Temperature and pH stability [5]: high temperature and pH stability
